In one assay the target is T1, purified Topo I (Homo sapiens, UniProt P11387).
T1 sequence (P11387 1-765): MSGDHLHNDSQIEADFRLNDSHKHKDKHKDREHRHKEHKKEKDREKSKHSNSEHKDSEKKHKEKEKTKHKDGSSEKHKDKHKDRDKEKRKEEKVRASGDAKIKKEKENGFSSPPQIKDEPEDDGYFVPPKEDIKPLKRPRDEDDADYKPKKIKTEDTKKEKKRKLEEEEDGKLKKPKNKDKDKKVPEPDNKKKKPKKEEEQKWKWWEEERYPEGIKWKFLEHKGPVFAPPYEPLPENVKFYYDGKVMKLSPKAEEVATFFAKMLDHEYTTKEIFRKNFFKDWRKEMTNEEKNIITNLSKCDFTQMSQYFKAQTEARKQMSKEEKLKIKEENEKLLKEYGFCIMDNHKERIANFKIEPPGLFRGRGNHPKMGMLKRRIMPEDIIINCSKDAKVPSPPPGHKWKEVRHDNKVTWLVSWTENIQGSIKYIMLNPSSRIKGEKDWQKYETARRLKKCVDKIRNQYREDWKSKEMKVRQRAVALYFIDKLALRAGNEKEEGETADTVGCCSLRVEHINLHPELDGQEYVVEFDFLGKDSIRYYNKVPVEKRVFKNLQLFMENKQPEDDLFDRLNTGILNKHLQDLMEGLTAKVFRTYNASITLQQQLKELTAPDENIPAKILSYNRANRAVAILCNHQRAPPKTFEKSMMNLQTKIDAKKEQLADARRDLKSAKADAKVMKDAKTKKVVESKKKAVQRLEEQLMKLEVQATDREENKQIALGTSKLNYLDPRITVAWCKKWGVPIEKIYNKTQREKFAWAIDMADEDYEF
Kind of assay: In vitro assay for DNA strand-break formation in the presence of purified Topo I. Type of assay: biochemical.

Assay [1] deals with chicken pre-B cell line DT40. Kind of assay: Thymidine incorporation toxicity assay in isogenic DT40 cells with or without KU70, RAD52, RAD54. To be noted: for effect of loss of homologous recombination (RAD52 or RAD54) on toxicity: DT40 with or without RAD52 or RAD54. Type of assay: cell-based. As for the experimental part: (§1) Cell lines were grown at 37° C. in an atmosphere of 5% CO2. The chicken pre-B cell line DT40 and its derivatives (Bezzubova, et al., Cell 89: 185–93 (1997), Takata, et al., EMBO Journal 17: 5497–508 (1998), Yamaguchi-Iwai, et al., Molecular & Cellular Biology 18: 6430–5 (1998)) were grown in RPMI containing 10% fetal calf serum and 1% chicken serum. The remaining cell lines were grown in DMEM with 10% fetal calf serum.
(§2) Toxicity assays in mammalian cell lines were performed using tritiated thymidine incorporation as a measure of the number of viable cells. […] Drug toxicity was measured as follows:
(§3) Cells were plated at a density of 500 cells per well in opaque 96 well plates (Packard) in a volume of 135 μL per well of the appropriate media. The plates were incubated overnight to allow cell adherence. Seven two-fold dilutions of the test compounds were added in a volume of 15 μL per well in triplicate, and 15 μL of media containing an appropriate concentration of DMSO was added to control wells in triplicate. Plates were incubated at 37° C. for 96 hours. The media was then replaced with 100 μL per well of the appropriate media containing 2 μCi/mL of (methyl-^3H) thymidine (Amersham Pharmacia Biotech), then plates were incubated for a further 24 hours at 37° C. Cells were washed three times with PBS, then 100 μL per well of scintillant was added (Microscint 20, Packard), and sealed plates were counted in a microplate reader (Packard Topcount). For suspension chicken cells, (methyl-^3H) thymidine was added directly to the drug-containing media at a concentration of 20 μCi/mL (comprising one tenth of the media volume) and incubated overnight. The suspension cells were transferred to a UniFilter GF/C plate (Packard) and washed with PBS in a plate washer (Packard). After drying, 25 μL per well of scintillant (Microscint 20, Packard) was added, and sealed plates were counted. Toxicity is expressed as a percentage of the control counts. For experiments involving shorter exposures to compounds, cells were grown in the presence of compound for the appropriate time, then the media was replaced with fresh drug-free media, and incubation continued for the remainder of 96 hours, followed by the normal tritiated thymidine uptake and washing protocol.
In the case of Topo II poisons, the drug/enzyme complex directly produces a DSB, which could occur in all phases of the cell cycle and can apparently be repaired by either DSB repair pathway. Topo I poisons, however, create a single strand break that is converted to a DSB by passage of a replication fork during ongoing DNA synthesis (D'Arpa, et al., Cancer Research 50: 6919–24 (1990), Hsiang, et al., Cancer Research 49: 5077–82 (1989), Holm, et al., Cancer Research 49: 6365–8 (1989)). It has been proposed that DSB's created in this context can only be repaired by homologous recombination, additionally requiring proteins involved in sister chromatid cohesion (Castano, et al., Genes & Development 10: 2564–76 (1996), Castano, et al., Nucleic Acids Research 24: 2404–10 (1996), Walowsky, et al., Journal of Biological Chemistry 274: 7302–8 (1999)).
Background: Dividing cells build labelled thymidine or BrdU into new DNA.

A further assay has as its system ACHN, SW620, A549, MDA-N. Kind of assay: Thymidine incorporation toxicity assay in four cancer derived cell lines. To be noted: for correlation between MDR1 activity and toxicity/sensitivity: A549, SW620, ACHN (MDR1 10, 31, 120); for cell line against which most effective: four tumor derived cell lines. It is filed as cell-based, human. As to the method: as §1, §2, §3
A common mechanism of tumor resistance to chemotherapeutic agents is overexpression of the drug efflux protein MDR1 (Kane, et al., Advances in Drug Research 28: 182–252 (1996), Nooter, et al., Leukemia Research 18: 233–43 (1994)). MDR1 is overexpressed in many tumor derived cell lines (for instance see http://dtp.nci.nih.gov/), and its overexpression inversely correlates with sensitivity to certain compounds (Kane, et al., Advances in Drug Research 28: 182–252 (1996)).

The subject of assay [2] is Rat1a fibroblasts. Kind of assay: Effect of exposure time on toxicity in Rat1a fibroblasts. To be noted: for toxicity with a two hour exposure: additional experiments; for toxicity of four hour versus six hour exposure: total incubation 96 hours. It is filed as cell-based, rat. As to the method:
as §3

For assay [3], the system named is DSB repair defective rad50 and rad52 strains of Saccharomyces cerevisiae. Type of assay: cell-based. To be noted: relative growth (OD660) vs solvent control. From the text: The strains are derived from the A364a genetic background, with the exception of BY4705, which is derived from the S288C background. Gene disruptions were generated by PCR fragment directed replacement (Baudin, et al., Nucleic Acids Research 21: 3329–30 (1993), Guldener, et al., Nucleic Acids Research 24: 2519–24 (1996)). Yeast overexpressing topoisomerase II was constructed by a PCR fragment directed promoter replacement of the topoisomerase II promoter with the yeast GPD promoter flanked upstream by the URA3 marker. All strains (except BY4705) bear the pleitropic drug sensitizing mutations erg6, pdr1, and pdr3 (Balzi, et al., Journal of Bioenergetics & Biomembranes 27: 71–6 (1995), Delaveau, et al, Molecular & General Genetics 244: 501–11 (1994), Gaber, et al., Molecular & Cellular Biology 9: 3447–56 (1989), Saunders, et al., Canadian Journal of Genetics & Cytology, 24: 493–503 (1982). Subik, et al, Current Genetics 10: 665–70 (1986)). The haploid yeast strain BY4705 (Brachmann, et al., Yeast 14: 115–32 (1998)) was used in the experiments described in FIG. 5. Plasmids expressing yeast or human topoisomerase I genes under the GAL promoter (Knab, et al., Journal of Biological Chemistry 268: 22322–30 (1993). Knab, et al., Journal of Biological Chemistry 270: 6141–8 (1995)) were transformed into BY4705 using standard procedures.
Yeast toxicity assays were performed essentially as follows: Exponentially growing cultures of the appropriate strains were diluted in synthetic complete media to a concentration of 7.4×10^4 cells/mL, and aliquots (135 μL) were transferred to each well of clear flat-bottomed 96 well plates. Compounds were added in duplicate or triplicate as 15 μL of the appropriate dilution in 5% DMSO. A 15 μL portion of 5% DMSO was added to control wells. […] Cell growth (OD660) in treated wells was plotted as a percentage of the growth in at least four averaged solvent control wells for the same strain. Camptothecin sodium salt (camptothecin Na) was the agent used in all yeast assays as standard.

Assay [4] has as its system Rat1a fibroblasts. Kind of assay: Effect of co-treatment with hydroxyurea (HU) on toxicity in Rat1a fibroblasts. It is filed as cell-based, rat. To be noted: six-hour exposure; 0, 0.25, 0.5 or 1 mM HU. As for the experimental part:
FIG. 6 illustrates the effect of exposure time and hydroxyurea on the toxicity of compound Ia and compound IIa. […] Rat1a fibroblasts were exposed to compound during growth for either four or six hours, the media was changed, then cells were grown for an appropriate period such that total incubation time was 96 hours, and processed as described in the Example below. […] The bar graph insets for each graph show growth inhibition by HU alone.
as §3
A six-hour exposure was used to test whether the toxicity of the same set of compounds is dependent on ongoing DNA synthesis. […] Thus, in contrast to camptothecin and topotecan, compounds Ia and IIa show no marked time dependency for toxicity (FIG. 6A) and are not inhibited by HU (FIG. 6B), indicating critical mechanistic differences between these compounds and camptothecin.

This note sets out measurements from patent US7173063B1, “Topoisomerase poisons for the treatment of proliferative disorders” (Fred Hutchinson Cancer Research Center, priority 2000, dated 2007).

The structures appear in SMILES notation.

As for `CC[C@@]1(O)C(=O)OCc2c1cc1n(c2=O)Cc2cc3ccccc3nc2-1` [camptothecin, Camptothecin, reference compound], at purified Topo I, the “camptothecin concentration required in the in vitro assay relative to cell-based assays” value stood at 100 fold and the strand-break induction result is given as “does induce strand-break formation”. Moreover, the “effect of loss of KU70 on toxicity” value in assay [1] (DT40 with or without KU70) was “unaffected by KU70 expression”. Moreover, in assay [1], the “effect of loss of homologous recombination (RAD52 or RAD54) on toxicity” value is recorded as “minor effect”. In addition, in the assay with ACHN, SW620, A549, MDA-N, the “correlation between MDR1 activity and toxicity/sensitivity” value is given as “No correlation”; the “cell line against which most effective” value is recorded as “most effective against the colon carcinoma derived cell line SW620”. In the assay with Rat1a fibroblasts [2], the “effectiveness of 96 hour exposure relative to four hour exposure” value was ≤ 100 fold and the “toxicity with a two hour exposure” value is “no toxicity”.
For `CC(=O)O[C@H]1C(=O)[C@@]2(C)[C@H]([C@H](OC(=O)c3ccccc3)[C@]3(O)C[C@H](OC(=O)[C@H](O)[C@@H](NC(=O)c4ccccc4)c4ccccc4)C(C)=C1C3(C)C)[C@]1(OC(C)=O)CO[C@@H]1C[C@@H]2O` [taxol, reference compound], the “correlation between MDR1 activity and toxicity/sensitivity” value in the assay on ACHN, SW620, A549, MDA-N is reported as “clear inverse correlation”.
As for `COc1cc([C@@H]2c3cc4c(cc3[C@@H](O[C@@H]3O[C@@H]5CO[C@@H](C)O[C@H]5[C@H](O)[C@H]3O)[C@H]3COC(=O)[C@H]23)OCO4)cc(OC)c1O` [etoposide, reference compound], the “effect of loss of homologous recombination (RAD52 or RAD54) on toxicity” value in assay [1] is listed as “no effect”. Also, in the assay with Rat1a fibroblasts [2], the “toxicity with a two hour exposure” value is on record as “nearly full toxicity” and the “toxicity of four hour versus six hour exposure” value is “little difference in toxicity”.
Consider `O=C1c2c(O)ccc(O)c2C(=O)c2c(NCCNCCO)ccc(NCCNCCO)c21` [mitoxantrone], for which, in assay [3], the “profile of selective toxicity: toxic to rad50 and rad52 strains, not toxic in rad14 or rad18 strains” value is on record as “Agents with this profile include”.
With `CC[C@@]1(O)C(=O)OCc2c1cc1n(c2=O)Cc2cc3c(CN(C)C)c(O)ccc3nc2-1` [topotecan, Topotecan, reference compound], in the assay on ACHN, SW620, A549, MDA-N, the “correlation between MDR1 activity and toxicity/sensitivity” value is listed as “No correlation”; the “cell line against which most effective” value is reported as “most effective against the colon carcinoma derived cell line SW620”. In addition, in the assay on Rat1a fibroblasts [2], the “toxicity of four hour versus six hour exposure” value is given as “six-hour exposure being much more effective than a four-hour exposure”. Moreover, the “inhibition of toxicity by co-treatment with HU” value in the assay on Rat1a fibroblasts [4] was “suppresses the toxicity”.
